Read-outs that look alike come from different tables or passages of the source.
How the values were obtained:
Test in all cases: Greenhouse test, pre-emergence treatment
[1] = tested on: COMBE; type: in vivo, Commelina benghalensis; settings: Commelina benghalensis, pre-emergence, 480 h
Method in brief: (§1)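 Seeds were sown in loamy sand with about 3.0% humus, and compounds in water were sprayed immediately after sowing, alone or as combinations formulated as 10% emulsion concentrates. Plants grew under hoods until rooted, at 10-25 °C or 20-35 °C by species, for 2 to 4 weeks. Damage was scored 0-100 (100 = no emergence or complete destruction), and Colby expected values were E=X+Y−(X·Y/100).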

[2] = tested on: IPOHE; type: in vivo, Ipomoea hederacea; settings: Ipomoea hederacea, 480 h, IPOHE, individual, read-out: observed % activity 20 DAT
Method in brief: as §1

[3] = tested on: LOLMU; type: in vivo, Lolium multiflorum; settings: Lolium multiflorum, pre-emergence, 480 h, pre-emergence, read-out: observed % activity 20 DAT
Text: (§2) The culture containers used were plastic flowerpots containing loamy sand with approximately 3.0% of humus as the substrate. The seeds of the test plants were sown separately for each species.
(§3) For the pre-emergence treatment, the active ingredients, which had been suspended or emulsified in water, were applied directly after sowing by means of finely distributing nozzles. The containers were irrigated gently to promote germination and growth and subsequently covered with transparent plastic hoods until the plants had rooted. This cover caused uniform germination of the test plants, unless this had been impaired by the active ingredients.
(§4) Depending on the species, the plants were kept at 10-25° C. or 20-35° C., respectively.
(§5) The test period extended over 2 to 4 weeks. During this time, the plants were tended, and their response to the individual treatments was evaluated.
(§6) Evaluation was carried out using a scale from 0 to 100. 100 means no emergence of the plants, or complete destruction of at least the aerial moieties, and 0 means no damage, or normal course of growth. A moderate herbicidal activity is given at values of at least 60, a good herbicidal activity is given at values of at least 70, and a very good herbicidal activity is given at values of at least 85.
(§7) The respective stated components a and b, and if appropriate, c were formulated as a 10% by weight strength emulsion concentrate and, with addition of the amount of solvent system, introduced into the spray liquor used for applying the active compound.
(§8) In the examples, the solvent used was water.
(§9) In the examples below, using the method of S. R. Colby (1967) “Calculating synergistic and antagonistic responses of herbicide combinations”, Weeds 15, p. 22ff., the value E, which is expected if the activity of the individual active compounds is only additive, was calculated. E=X+Y−(X·Y/100) where • X=percent activity using active compound a at an application rate A; • Y=percent activity using active compound b at an application rate B; • E=expected activity (in %) by a+b at application rates A+B.
(§10) If the value found experimentally is higher than the value E calculated according to Colby, a synergistic effect is present.

[4] = tested on: ALOMY; type: in vivo, Alopecurus myosuroides; settings: Alopecurus myosuroides, pre-emergence, 480 h, pre-emergence, read-out: observed % activity 20 DAT; for inhibition at 50 g/ha: use rate 50 g ai/ha; for inhibition at 100 g/ha: use rate 100 g ai/ha
Text: as §2, §3, §4, §5, §6, §7, §8, §9, §10

[5] = tested on: KCHSC; type: in vivo, Kochia scoparia; settings: Bassia scoparia, pre-emergence, 480 h, pre-emergence, read-out: observed % activity 20 DAT
Method in brief: as §1

[6] = tested on: ECHCG; type: in vivo, Echinocloa crus-galli; settings: Echinochloa crus-galli, 480 h, ECHCG, use rate 50 g ai/ha, 20 DAT, read-out: observed % activity 20 DAT
Text: as §2, §3, §4, §5, §6, §7, §8, §9, §10

[7] = tested on: SIDRH; type: in vivo, Sida rhombifolia; settings: Sida rhombifolia, pre-emergence, 480 h
Method in brief: as §1

[8] = tested on: GERPU; type: in vivo, Geranium pusillum; settings: Geranium pusillum, pre-emergence, 480 h
Method in brief: as §1

[9] = tested on: CENCY; type: in vivo; settings: 480 h, individual, read-out: observed % activity 20 DAT
[10] = tested on: ANTAR; type: in vivo; settings: Anthemis arvensis, 480 h, 20 DAT, read-out: observed % activity
Method in brief: as §1

[11] = tested on: POLCO; type: in vivo, Polygonum convolvulus; settings: Fallopia convolvulus, pre-emergence, 480 h; for inhibition at 50 g/ha: use rate 50 g ai/ha
Method in brief: as §1

[12] = tested on: EPHHL; type: in vivo, Euphorbia heterophylla; settings: Euphorbia heterophylla, pre-emergence, 480 h, read-out: observed % activity 20 DAT
Method in brief: as §1

[13] = tested on: APESV; type: in vivo, Apera spica-venti; settings: Apera spica-venti, 480 h, read-out: observed % activity 20 DAT
Text: as §2, §3, §4, §5, §6, §7, §8, §9, §10

[14] = tested on: ABUTH; type: in vivo, Abutilon theophrasti; settings: Abutilon theophrasti, 480 h
Method in brief: as §1

[15] = 20 g ai/ha, 20 DAT, read-out: observed % activity
[16] = 40 g ai/ha, 20 DAT, read-out: observed % activity
[17] = read-out: observed % activity 20 DAT

COc1c(Cl)ccc(Cl)c1C(=O)O [DICAMBA, dicamba]
inhibition at 20 g/ha [1, 15]: 45% | inhibition at 40 g/ha [1, 16]: 65% | inhibition at 70 g/ha ([1]; COMBE, individual, use rate 70 g ai/ha, read-out: observed % activity 20 DAT): 50% | inhibition at 35 g/ha [1, 17]: 15% | inhibition at 35 g/ha ([2]; use rate 35 g ai/ha): 40% | inhibition at 70 g/ha ([2]; use rate 70 g ai/ha): 40% | inhibition at 50 g/ha ([3]; LOLMU, use rate 50 g ai/ha, 20 DAT): 40% | inhibition at 100 g/ha [3]: 45% | inhibition at 50 g/ha ([4]; ALOMY, 20 DAT): 20% | inhibition at 100 g/ha ([4]; ALOMY, 20 DAT): 40% | inhibition at 50 g/ha [4]: 20% | inhibition at 100 g/ha [4]: 40% | inhibition at 100 g/ha ([5]; use rate 100 g ai/ha): 90% | inhibition at 35 g/ha [5]: 75% | inhibition at 50 g/ha [5]: 85% | inhibition at 70 g/ha [5]: 75% | inhibition at 50 g/ha [6]: 0% | inhibition at 20 g/ha [7, 15]: 45% | inhibition at 40 g/ha [7, 16]: 80% | inhibition at 35 g/ha ([7]; SIDRH, individual, use rate 35 g ai/ha, read-out: observed % activity 20 DAT): 20% | inhibition at 70 g/ha [7, 17]: 15% | inhibition at 20 g/ha [8, 15]: 20% | inhibition at 40 g/ha [8, 16]: 85% | inhibition at 35 g/ha ([8]; GERPU, individual, use rate 35 g ai/ha, read-out: observed % activity 20 DAT): 40% | inhibition at 35 g/ha ([9]; use rate 35 g ai/ha): 0% | inhibition at 70 g/ha ([9]; use rate 70 g ai/ha): 30% | inhibition at 20 g/ha ([10]; 20 g ai/ha): 30% | inhibition at 40 g/ha ([10]; 40 g ai/ha): 30% | inhibition at 20 g/ha [11, 15]: 35% | inhibition at 40 g/ha [11, 16]: 90% | inhibition at 50 g/ha ([11]; POLCO, 20 DAT, read-out: observed % activity 20 DAT): 40% | inhibition at 50 g/ha [11, 17]: 40% | inhibition at 100 g/ha ([11]; use rate 100 g ai/ha, read-out: observed % activity 20 DAT): 60% | inhibition at 35 g/ha [12]: 20% | inhibition at 100 g/ha [13]: 35% | inhibition at 20 g/ha [14, 15]: 60% | inhibition at 40 g/ha [14, 16]: 80% | inhibition at 35 g/ha ([14]; ABUTH, individual, use rate 35 g ai/ha, read-out: observed % activity 20 DAT): 0% | inhibition at 70 g/ha ([14]; ABUTH, individual, use rate 70 g ai/ha, read-out: observed % activity 20 DAT): 20%
